We go through 1 compound from US20050228016A1, “TETRAHYDROQUINOLINES FOR MODULATING THE EXPRESSION OF EXOGENOUS GENES VIA AN ECDYSONE RECEPTOR COMPLEX” (priority 2002, published 2005).

Data set [1] deals with T1, GAL4AaEcR-DEF/VP16HsRXRβ-EF (Aedes aegypti, UniProt P49880).
T1 construct: expressed in transfected cells; host or cells: mouse NIH3T3 cells
T1 sequence (P49880 405-776 limits assumed): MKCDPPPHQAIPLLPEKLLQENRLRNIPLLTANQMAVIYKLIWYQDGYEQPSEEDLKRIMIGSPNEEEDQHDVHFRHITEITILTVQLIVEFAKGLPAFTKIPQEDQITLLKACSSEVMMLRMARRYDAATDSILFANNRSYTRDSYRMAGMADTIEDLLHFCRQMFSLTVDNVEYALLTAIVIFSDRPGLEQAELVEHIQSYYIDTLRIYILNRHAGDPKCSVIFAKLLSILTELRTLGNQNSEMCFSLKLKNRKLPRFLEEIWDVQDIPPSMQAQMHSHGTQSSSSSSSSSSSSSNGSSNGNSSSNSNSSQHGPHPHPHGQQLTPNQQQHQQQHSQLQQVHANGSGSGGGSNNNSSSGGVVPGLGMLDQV
T1 sequence (P28702 299-533 partner limits assumed): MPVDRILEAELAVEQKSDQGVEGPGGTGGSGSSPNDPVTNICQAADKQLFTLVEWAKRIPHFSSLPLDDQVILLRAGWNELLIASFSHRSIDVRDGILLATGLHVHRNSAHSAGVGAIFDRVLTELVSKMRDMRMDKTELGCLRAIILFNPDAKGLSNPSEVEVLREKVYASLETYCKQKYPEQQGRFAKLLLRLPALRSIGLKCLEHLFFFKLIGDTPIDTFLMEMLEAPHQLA
In words: Transactivation reporter assay, AaEcR based switch (1.4) in NIH3T3 cells. The note with it: mammalian cells; FIGS. 2-5. Type of data set: cell-based. As for the experimental part:
Total relative light units (RLU) are shown.
Twenty μl of lysate were assayed.
(In general: Reporter assays use an easily measured gene product as a stand-in for the process of interest.)

The subject of data set [2] is GAL4 DBD-CfEcR(DEF)/VP16AD-MmRXRE. The following applies: CHO 13B3 clone, 48 h, average of two wells. The gist of the method: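 CHO 13B3 clone stably expressing GAL4 DBD-CfEcR(DEF) and VP16AD-MmRXRE with GAL4 RE-luciferase reporter; ligands from DMSO stocks diluted 300-fold. Luciferase read 48 h after treatment; duplicate wells averaged, fold induction = RLU ligand-treated / RLU DMSO-treated.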

In the case of `C[C@H]1C[C@H](Nc2ccc(F)cc2)c2cc(F)ccc2N1C(=O)c1ccc(F)c(C(F)(F)F)c1` (relative stereo) [Compound I-5], the “Activity on AaEcR based switches” value in data set [1] is listed as “very active”. Further, the “Fold Induction Average, 13B3V1 Assay 33 μM” value in data set [2] worked out at 1 fold.
